The source of these data is US10188733B2 (priority 2010, dated 2019).

This test deals with VSV-specific neutralizing antibodies. The class given is in vivo, mice. The conditions noted are these: for antigen-specific antibody titers / increase in adaptive immune responses following immunization: mouse, in vivo; for VSV antigen-specific neutralizing antibody titers: free bisphosphonate 2 mg footpad days -3 and -1, live VSV Indiana 10^4 pfu, serum day 8, vs control mice (FIG. 6).

On to dextran sulfate, for which the antigen-specific antibody titers entry is reported as “did not increase” and the “increase in adaptive immune responses following immunization” value is on record as “failed to induce an increase”. With carrageenan, the antigen-specific antibody titers entry is on record as “did not increase” and the “increase in adaptive immune responses following immunization” value is “failed to induce an increase”.

In the case of `NCCC(O)(P(=O)(O)O)P(=O)(O)O` [pamidronate], the “VSV antigen-specific neutralizing antibody titers” value is listed as “increased”.

For the compound `NCCCC(O)(P(=O)(O)O)P(=O)(O)O` [alendronate], the “VSV antigen-specific neutralizing antibody titers” value was “increased”. On the same count and under the same terms, in the case of `CC(O)(P(=O)(O)O)P(=O)(O)O` [etidronate] it was “increased”.
